Measurements reported in publication PMC12040169 (PLOS Biology, 2025).

Experiment: in vitro
Settings: human, hela cells, % viability

| SMILES | viability at 28.5 h, 10 µM [%] |
| --- | --- |
| COC(=O)c1cn([C@H]2CO[C@H]3[C@@H]2OC[C@@H]3NC(=O)C2CCCCC2)nn1 [CBK289496] | 98.4 |
| COc1ncccc1C(=O)N1CCN(c2ccccc2)CC1 [CBK200166] | 103 |
| Cc1nn(CCS(C)(=O)=O)c(C)c1CN1CCOC(c2ccccc2)C1 (centres unmarked) [CBK306162] | 80.4 |
| COc1cccc2c1OCC[C@@H]2Oc1cncc(N2CCNCC2)n1 [CBK172305G] | 106 |
| COc1cccc2c1cc(C(=O)NC1CCCN(C)C1)n2C (centres unmarked) [CBK283266] | 90.2 |
| COc1cc(OC)nc(C(NC(=O)C2CCN(Cc3ccc(N(C)C)cc3)CC2)c2ccc(F)cc2)n1 (centres unmarked) [CBK148204] | 88.9 |
| O=C(c1cccs1)[C@H]1CCCN(C(=O)c2cc(C3CC3)n[nH]2)C1 [CBK282411] | 85.3 |
| CN(CC(N)=O)c1nc(-c2cccnc2)nc2ccccc12 [CBK306346] | 87 |
| CC1CCCN(Cc2ccccc2[N+](=O)[O-])C1 (centres unmarked) [CBK261862] | 102 |
| CCOC(=O)CC(=O)COc1nc2cc3c(nc2o1)CCCC3 [CBK269204] | 89.8 |
| CC(O)c1cc2n(n1)CCN(C(=O)c1csc(Cc3ccccc3)n1)C2 (centres unmarked) [CBK307437] | 98.1 |
| O=C1N[C@@H](Cc2ccc(F)cc2)C(=O)N2CCN(C(=O)N3CCOCC3)C[C@H]12 [CBK289603] | 109 |
| CCOc1ncccc1C(=O)OCc1cc2ccc(OC)cc2nc1Cl [CBK295289] | 78.1 |
| Cc1cccc(C(=O)Nc2cc(NC(=O)c3cccc(C)c3)cc(C(=O)O)c2)c1 [CBK269649] | 98 |
| CCCC(=O)c1ccc(S(=O)(=O)N2CCN(Cc3cccc(F)c3C)CC2)cc1 [CBK063152] | 88.4 |
| CCOC(=O)c1ccccc1NC(=O)CCC(=O)O [CBK261631] | 93.5 |
| CSc1nc(NC(=O)c2ccoc2)cc(N2CCNCC2)n1 [CBK050314T] | 88.9 |
| COc1ccc2[nH]c3c(c2c1)CCN1C(c2ccco2)N2CCC31CC2 (centres unmarked) [CBK284432] | 88 |
| CCc1c(C)nc2ccccc2c1SCCC(=O)O [CBK116382C] | 118 |
| COCOc1ccc(-c2ncc(OC)nc2NC(=O)c2cc3ccccc3s2)cc1 [CBK145250] | 103 |
| O=S(=O)(O)c1cccc2cccc(Nc3ccccc3)c12 [CBK013362G] | 84.8 |
| CCOc1ccc2[nH]c3c(c2c1)CN(C(=O)C1(C)CCCO1)CC3 (centres unmarked) [CBK282659] | 86.2 |

| SMILES | viability at 28.5 h, 10 µM [%] |
| --- | --- |
| O=C(NC/C=C/c1cn(C2CC(O)C(CO)O2)c(=O)[nH]c1=O)C(F)(F)F (centres unmarked) [CBK201249] | 109 |
| COCc1cccc(-c2ncc(OC)nc2NC(=O)c2c(C)noc2C)c1 [CBK145237] | 95.6 |
| COc1ccc(CN2CCNC(=O)C2CC(=O)O)c(OC)c1 (centres unmarked) [CBK270072] | 112 |
| CCOc1nc2c(c(C(F)(F)F)n1)CC(C)C/C2=C\c1ccccc1 (centres unmarked) [CBK265800] | 94.8 |
| Cc1cccn2c(=O)cc(CN3CCC(CNc4ccccn4)C3)nc12 (centres unmarked) [CBK306123] | 103 |
| COc1ccc(Br)cc1C(=O)NCC1(c2ccccc2)CCOCC1 [CBK067051] | 82.7 |
| COc1ccc(F)cc1-c1cccc(CC2(C(=O)NCCc3ccccc3)CCOCC2)c1 [CBK285562] | 84.5 |
| c1coc(-c2cc3ncc4c(n3n2)CC2CCC4N2)c1 (centres unmarked) [CBK284381] | 84.7 |
| CCn1ncc(CN[C@@H]2CCC(=O)N[C@H]2c2cc(F)cc(F)c2)c1C [CBK282914] | 98.3 |
| Cc1cc(C)n(CCCC(=O)N2C[C@H]3CCc4c[nH]nc4[C@H]3C2)n1 [CBK284573] | 101 |
| COc1cc(Cl)cc(/C=N\NC(=O)C2C(=O)NCC2c2ccccc2)c1O (centres unmarked) [CBK262825] | 91.8 |
| CCc1nc2ccc(C(=O)NCCCN3CCCC3=O)cn2c1N(C)C(=O)COc1ccccc1 [CBK145855] | 98.7 |
| CN(C(=O)c1ccc(-n2nncc2-c2ccccc2)cc1)c1ccccc1 [CBK288107] | 108 |
| Cn1c(C(=O)N2CCc3ccccc32)cc2ccccc21 [CBK200406] | 110 |
| CC(C)c1ccc(/C=C/C(=O)NCc2ccc3occc3c2)cc1 [CBK149620] | 93.3 |
| Cc1cn(-c2ccc(Br)cc2)[nH]c1=O [CBK288513] | 92.7 |
| Nc1cc2ccccc2nc1C1CCN(C(=O)C2CC=CCC2)CC1 (centres unmarked) [CBK285016] | 88.9 |
| c1ccc(-n2ncc3c(NCc4cccnc4)ncnc32)cc1 [CBK265528] | 85.2 |
| Clc1cccc(Nc2nc(Br)cn3ccnc23)c1 [CBK066260] | 80.6 |
| CN(C)CCOC(=O)c1ccc(S(=O)(=O)N(C)C)o1 [CBK264273C] | 100 |
| Cc1noc(NS(=O)(=O)c2ccc(NC(=O)/C=C/c3ccc(C(C)C)cc3)cc2)c1C [CBK265430] | 89.2 |
| CN1CCN(C2=NC(=O)CC(C(=O)Nc3ccccc3)N2)CC1 (centres unmarked) [CBK267884] | 97.1 |

| SMILES | viability at 28.5 h, 10 µM [%] |
| --- | --- |
| O=C(NCCO)c1cccc(-c2cc(N3CCCC3CO)n3nccc3n2)c1 (centres unmarked) [CBK037187] | 96.7 |
| c1ccc2c(c1)nc(-c1cscn1)n2Cc1ccc(-c2nnn[nH]2)cc1 [CBK266979] | 96.6 |
| CNc1ncc(CN(C)C(=O)Cn2nc(C)c3ccccc3c2=O)cn1 [CBK307704] | 85.5 |
| COC(=O)[C@H]1CCc2ccccc2N1C(=O)C1CCC1 [CBK285478] | 100 |
| c1ccc(COc2ccc(N3CCNCC3)cc2)cc1 [CBK012776C] | 83.5 |
| CCN1CCN(C(=O)c2ccc3nc(-c4ccccc4)c(-c4ccccc4)nc3c2)CC1 [CBK269090] | 94.7 |
| Cc1cc(C)nc(NC(=O)OCCc2cccnc2)c1 [CBK138234] | 95.1 |
| CC1Cc2cc(-c3cc4ccccn4c3)ccc2N1S(C)(=O)=O (centres unmarked) [CBK285227] | 90.3 |
| O=C(NC[C@H]1C[C@@H]2CC[N@]1C[C@@H]2CN1CCN(c2ccccn2)CC1)Nc1ccccc1 [CBK289114] | 106 |
| O=C(CCn1ccnc1)NCC1Cc2ccccc2O1 (centres unmarked) [CBK283062] | 81 |
| O=C(Nc1ccc(NC(=O)c2cc3ccccc3o2)cc1)c1ccc(-c2ccccc2)cc1 [CBK268887] | 107 |
| CN1CCC[C@H]1C(=O)N1CCN(C(=O)c2ccco2)CC1 [CBK144449] | 94.5 |
| CC(C)C(=O)NC(NC(=S)Nc1cccc2cccnc12)C(Cl)(Cl)Cl (centres unmarked) [CBK261051] | 90 |
| CC(C)COC(=O)n1ccc(C(=O)N2CCCCC2)n1 [CBK058828] | 84.9 |
| FC(F)(F)c1ccc(N2CCNCC2)nc1SCc1ccccc1Cl [CBK003964A] | 98.2 |
| O=C(O)CCCCCN1C(=O)/C(=C/c2ccc(O)c(O)c2)SC1=S [CBK262771] | 91 |
| CS(=O)(=O)c1ccc2nc(NC(=O)c3ccco3)sc2c1 [CBK287341] | 95.4 |
| CC1CCC(C(N)=O)CN1C(=O)c1cc(Br)c[nH]1 (centres unmarked) [CBK305769] | 94 |
| CC(C(=O)NCCc1ccncc1)n1cnc2ccccc21 (centres unmarked) [CBK282202] | 103 |
| COc1cc(CNC(=O)NC(=O)C2CCN(CCc3cccc(O)c3)CC2)cc(OC)c1OC [CBK034857] | 93.2 |
| CC(C)[C@@H](CO)Nc1nc(-c2ccc(S(C)(=O)=O)cc2)cnc1N [CBK063750] | 91.2 |
| COc1cc2c(cc1OC)CN(C(=O)CSc1nc3c(c(-c4cccs4)c1C#N)CN(C)CC3)CC2 [CBK267462] | 91.3 |

| SMILES | viability at 28.5 h, 10 µM [%] |
| --- | --- |
| CCC(NC(=O)C(c1cccs1)c1cccs1)c1ccc(F)cc1 (centres unmarked) [CBK286339] | 93.4 |
| O=C(O)CSCC(=O)N1CCN(c2ccc(F)cc2)CC1 [CBK057269] | 98 |
| O=C(CCc1ccc(Cl)cc1)NCCn1cncn1 [CBK283184] | 98.6 |
| Cc1cc2nc(N3CCN(C(=O)c4ccc(C#N)cc4)CC3)sc2cc1C [CBK287737] | 98.8 |
| C[C@@H](Nc1nccnc1-c1cccnc1)c1ccccc1 [CBK036759] | 109 |
| O=C(c1cc2c(F)cccc2[nH]1)N1CCC(Oc2cccnc2)CC1 [CBK281468] | 103 |
| CN(C)S(=O)(=O)NC1CC(C)(C)Cc2c1cnn2-c1ccc(F)cc1 (centres unmarked) [CBK306646] | 112 |
| O=C(O)Cn1nnc(-c2ccncc2)n1 [CBK269884] | 86.6 |
| O=C(C1CCCC1)N1CCCC(c2nccnc2-c2cccc(C(F)(F)F)c2)C1 (centres unmarked) [CBK286221] | 110 |
| O=C(CCS(=O)(=O)Cc1ccccc1)Nc1cc(C(F)(F)F)ccc1Cl [CBK268399] | 108 |
| CN(C)c1cccc2c(S(=O)(=O)n3ccn(-c4cccc(C(F)(F)F)c4)c3=O)cccc12 [CBK106578] | 109 |
| O=C(NCCN1CCOCC1)c1ccc(NS(=O)(=O)c2ccccc2)cc1 [CBK270118] | 102 |
| Clc1cncc(-c2cc3ccccc3[nH]2)n1 [CBK154865] | 101 |
| Cc1csc2c(C3CCCN(C(=O)c4cnn(C)c4)C3)nc(C)n12 (centres unmarked) [CBK284595] | 98.5 |
| CNC(=O)CC1SC(NC2CC3C=CC2C3)=NC1=O (centres unmarked) [CBK047491] | 90.7 |
| CCOCCCn1c(SCC(=O)NC(Cc2ccccc2)C(=O)O)nc2ccccc2c1=O (centres unmarked) [CBK297132] | 90.5 |
| O=C(Oc1ccc(/C=N/c2ccc(-c3nc4ccccc4s3)c(O)c2)cc1)c1ccc(Cl)cc1 [CBK261234] | 100 |
| Cc1ccc(Cc2nc(-c3cccnc3)no2)cc1 [CBK288141] | 94.3 |
| CCN(CC)CCN1CCN(c2cc(-c3ccc(OC(F)(F)F)cc3)ncn2)CC1 [CBK037756] | 96.3 |
| O=C(Nc1snnc1-c1ccc(Cl)cc1)c1ccco1 [CBK153242] | 102 |
| N#C/C(=C\c1ccccc1O)C(=O)Nc1sc2c(c1C(N)=O)CCCC2 [CBK263644] | 101 |

Same assay, conditions: human, hela cells, % viability, bulk resorufin, single well

| SMILES | viability at 28.5 h, 10 µM [%] |
| --- | --- |
| Cc1[nH]c2c(Cl)cc(Cl)cc2c1CCN [CBK070893] | 103 |
| NCCCC(=O)OC1N=C(c2ccccc2Cl)c2cc(Br)ccc2NC1=O (centres unmarked) [CBK264689B] | 104 |
